Read-outs that look alike come from different tables or passages of the source.
How the values were obtained:
Botrytis cinerea = assay: Fungicidal activity against Botrytis cinerea, mycelial growth inhibition on PDA plate; assay type: cell-based
Description: (§1) Bioassay method: Stock solution of every test compound was prepared in an appropriate solvent such as N,N-dimethylformamide (DMF), and then diluted to the required test concentrations with sterile water containing 0.1% Tween 80; Pipetted 3 mL of test solution to 27 mL of potato dextrose agar (PDA) medium at 45° C. and poured into a Petri dish to prepare a plate after shaking thoroughly; 6 mm of diameter of fungi cake from the edge of 7-day-old […] colony was inoculated on the central of the plate, wherein mycelium facing down, and cultured in the culture tank at 28° C. The diameter of fungi spread was calculated 4 days later using the control group tested with the diluent only. Test was run 4 times. Data were subjected to EXCEL statistical software analysis and the growth inhibition of the tested compound was calculated according to the corresponding control, the activity was rated on the basis of percentage of growth inhibition using the following rating system: A, inhibition (%)>90; B, 90≧inhibition (%)>70; C, 70≧inhibition (%)>50; D, inhibition (%)≦50.
Fungicidal activities against Botrytis cinerea of compounds represented by the general formula (I) were evaluated with the corresponding method in Example 18, and some of the test results are shown in Table 6 to Table 8.

Abutilon = assay: Herbicidal activity, pre-emergence pot test, Abutilon; assay type: in vivo, Abutilon theophrasti; details: 150 g a.i./mu, 15 to 25 days after treatment
From the text: (§2) Bioassay method: (1) Plastic pots (about 64 cm^2) were filled with soil and placed in a stainless steel basin, seeds with the same size and plumpness of monocotyledonous weeds such as Digitaria sanguinalis, Echinochloa crus-galli, Setaria viridis and Dicotyledonous weeds such as Abutilon theophrasti or Stelleria media or Solanum nigrum, Chenopodium album, Amaranthus ascedene or Amaranthus retroflexus were sown in one-third of the pot area with the soil depth of 1 cm in two different pots separately and grown to the desired leaf stage in a greenhouse wherein water is added to the stainless steel basin until the full infiltration of soils from the bottom of pots; (2) Test compounds represented by the general formula (I) were formulated by using N,N-dimethylformamide as solvent and a small amount of Tween 80 as emulsification agent, then diluted to the required test concentrations with water, using the control group tested with corresponding solvent and water only; (3) the required test solutions were applied for pre-emergence treatment 24 hr after the weeds were sown, for postemergence treatment, monocotyledonous weeds were treated at the 1-leaf stage and dicotyledonous weeds were treated at 2 leaf stage; (4) the pre- and postemergence application rates were 150 g a.i./mu, using the control group with corresponding solvent or water respectively; (5) Treatments were kept in greenhouse for cultivation; (6) Herbicidal activities were evaluated visually 15 to 25 days after treatment, on the basis of the survey results, the weed control effect can be calculated by the following formula: efficacy (%)=(the height of the weed in the control group−the height of the weed in the test group) (the height of the weed in the control group).

Amaranthus spinosus = assay: Herbicidal activity, pre-emergence pot test, Amaranthus spinosus; assay type: in vivo; details: 150 g a.i./mu, 15 to 25 days after treatment
From the text: as §2

Chenopodium album = assay: Herbicidal activity, pre-emergence pot test, Chenopodium album; assay type: in vivo; details: 150 g a.i./mu, 15 to 25 days after treatment
From the text: as §2

Digitaria sanguinalis = assay: Herbicidal activity, pre-emergence pot test, Digitaria sanguinalis; assay type: in vivo; details: 150 g a.i./mu, 15 to 25 days after treatment
From the text: as §2

Echinochloa crus-galli = assay: Herbicidal activity, pre-emergence pot test, Echinochloa crus-galli; assay type: in vivo; details: 150 g a.i./mu, 15 to 25 days after treatment
From the text: as §2

Setaria viridis = assay: Herbicidal activity, pre-emergence pot test, Setaria viridis; assay type: in vivo; details: 150 g a.i./mu, 15 to 25 days after treatment
From the text: as §2

Sclerotinia sclerotiorum = assay: Fungicidal activity against Sclerotinia sclerotiorum, mycelial growth inhibition on PDA plate; assay type: cell-based
Description: as §1

Alternaria alternata = assay: Fungicidal activity against Alternaria alternata, mycelial growth inhibition on PDA plate; assay type: cell-based; details: Alternaria alternata; 25 mg/L; read-out: activities against Alternaria alternata (growth inhibition rating)
Description: as §1
Fungicidal activities against Alternaria alternata of compounds represented by the general formula (I) were evaluated with the corresponding method in Example 18, and some of the test results are shown in Table 9 to Table 10.

Tetranychus urticae = assay: Acaricidal activity against Tetranychus urticae, dipping of horsebean seedlings; assay type: in vivo
Description: Bioassay method: Stock solution of every test compound was prepared in an appropriate solvent such as N,N-dimethylformamide, and a small amount of Tween 80 was added as emulsification agent, then diluted to the required test concentrations with distilled water, using the control group tested with distilled water only. 100 to 200 adults of Tetranychus urticae were transferred to well-growing horsebean seedlings and 24 hr later, horsebean seedlings with Tetranychus urticae were dipped in the test solution for 10 s, then allowed to dry with filter paper and transplanted to the beaker containing water and kept in a room for normal cultivation. Each assay contained three replications, and results were averaged. Mortality was assessed 24 hr after the treatment. The activity was rated on the basis of mortality using the following rating system: A, mortality>90; B, 90≧mortality>70; C, 70≧mortality>50; D, mortality≦50.

Cercospora arachidicola = assay: Fungicidal activity against Cercospora arachidicola; assay type: cell-based; details: 25 mg/L
Description: as §1

Alternaria mali = assay: Fungicidal activity against Alternaria mali; assay type: cell-based; details: 25 mg/L
Description: as §1

Sphaceloma ampelinum = assay: Fungicidal activity against Sphaceloma ampelinum; assay type: cell-based; details: 25 mg/L
Description: as §1

Marssonina coronaria = assay: Fungicidal activity against Marssonina coronaria; assay type: cell-based; details: 25 mg/L
Description: as §1

Fusarium oxysporum = assay: Fungicidal activity against Fusarium oxysporum; assay type: cell-based; details: 25 mg/L
Description: as §1

Alternaria solani = assay: Fungicidal activity against Alternaria solani; assay type: cell-based; details: 25 mg/L
Description: as §1

CCN(Cc1cnc(Cl)s1)c1nc(SC)ccc1[N+](=O)[O-] [Compound 18]
activities against Botrytis cinerea (growth inhibition rating) (Botrytis cinerea; 25 mg/L): B (B, 90≧inhibition (%)>70) | herbicidal activity (efficacy), Abutilon (Abutilon): 0% | herbicidal activity (efficacy), Amaranthus spinosus (Amaranthus spinosus): 0% | herbicidal activity (efficacy), Chenopodium album (Chenopodium album): 0% | herbicidal activity (efficacy), Digitaria sanguinalis (Digitaria sanguinalis): 90% | herbicidal activity (efficacy), Echinochloa crus-galli (Echinochloa crus-galli): 80% | herbicidal activity (efficacy), Setaria viridis (Setaria viridis): 80%

CNc1ccc([N+](=O)[O-])c(N(C)Cc2cnc(Cl)s2)n1 [Compound 20]
herbicidal activity (efficacy), Abutilon (Abutilon): 70% | herbicidal activity (efficacy), Amaranthus spinosus (Amaranthus spinosus): 90% | herbicidal activity (efficacy), Chenopodium album (Chenopodium album): 90% | herbicidal activity (efficacy), Digitaria sanguinalis (Digitaria sanguinalis): 70% | herbicidal activity (efficacy), Echinochloa crus-galli (Echinochloa crus-galli): 70% | herbicidal activity (efficacy), Setaria viridis (Setaria viridis): 70%

CN(C)c1ccc([N+](=O)[O-])c(N(C)Cc2cnc(Cl)s2)n1 [Compound 23]
activities against Botrytis cinerea (growth inhibition rating) (Botrytis cinerea; 25 mg/L): B (B, 90≧inhibition (%)>70) | herbicidal activity (efficacy), Abutilon (Abutilon): 70% | herbicidal activity (efficacy), Amaranthus spinosus (Amaranthus spinosus): 80% | herbicidal activity (efficacy), Chenopodium album (Chenopodium album): 80% | herbicidal activity (efficacy), Digitaria sanguinalis (Digitaria sanguinalis): 0% | herbicidal activity (efficacy), Echinochloa crus-galli (Echinochloa crus-galli): 0% | herbicidal activity (efficacy), Setaria viridis (Setaria viridis): 0%

C#CCOc1ccc([N+](=O)[O-])c(N(CC)Cc2cnc(Cl)s2)n1 [Compound 25, 6-propargyloxy-N-((2-chlorothiazole-5-yl)methyl)-N-ethyl-3-nitropyridine-2-amine]
inhibition at 1.25 µg/mL (Sclerotinia sclerotiorum; Sclerotinia sclerotiorum, 1.25 mg/L, Table 4, read-out: activities against Sclerotinia sclerotiorum (growth inhibition)): 78% | inhibition at 2.5 µg/mL (Sclerotinia sclerotiorum; Sclerotinia sclerotiorum, 2.5 mg/L, Table 4, read-out: activities against Sclerotinia sclerotiorum (growth inhibition)): 84% | inhibition at 5 µg/mL (Sclerotinia sclerotiorum; Sclerotinia sclerotiorum, 5 mg/L, Table 4, read-out: activities against Sclerotinia sclerotiorum (growth inhibition)): 90% | inhibition at 10 µg/mL (Sclerotinia sclerotiorum; Sclerotinia sclerotiorum, 10 mg/L, Table 4, read-out: activities against Sclerotinia sclerotiorum (growth inhibition)): 96% | inhibition at 25 µg/mL (Sclerotinia sclerotiorum; Sclerotinia sclerotiorum, 25 mg/L, read-out: activities against Sclerotinia sclerotiorum (growth inhibition rating)): > 90% | inhibition at 1.25 µg/mL (Botrytis cinerea; Botrytis cinerea, 1.25 mg/L, Table 7, read-out: activities against Botrytis cinerea (growth inhibition)): 85% | inhibition at 2.5 µg/mL (Botrytis cinerea; Botrytis cinerea, 2.5 mg/L, Table 7, read-out: activities against Botrytis cinerea (growth inhibition)): 90% | inhibition at 5 µg/mL (Botrytis cinerea; Botrytis cinerea, 5 mg/L, Table 7, read-out: activities against Botrytis cinerea (growth inhibition)): 93% | inhibition at 10 µg/mL (Botrytis cinerea; Botrytis cinerea, 10 mg/L, Table 7, read-out: activities against Botrytis cinerea (growth inhibition)): 97% | inhibition at 25 µg/mL (Botrytis cinerea; Botrytis cinerea, 25 mg/L, read-out: activities against Botrytis cinerea (growth inhibition rating)): > 90% | inhibition at 25 µg/mL (Alternaria alternata): 70 to 90% | mortality at 500 µg/mL (Tetranychus urticae; Tetranychus urticae, 24 h, read-out: activities against Tetranychus urticae (mortality rating)): 50 to 70%

C=CCOc1ccc([N+](=O)[O-])c(N(CC)Cc2cnc(Cl)s2)n1 [Compound 29, 6-allyloxy-N-((2-chlorothiazole-5-yl)methyl)-N-ethyl-nitropyridine-2-amine]
activities against Sclerotinia sclerotiorum (growth inhibition) (Sclerotinia sclerotiorum; 1.25 mg/L, Table 4): 63% | activities against Sclerotinia sclerotiorum (growth inhibition) (Sclerotinia sclerotiorum; 2.5 mg/L, Table 4): 72% | activities against Sclerotinia sclerotiorum (growth inhibition) (Sclerotinia sclerotiorum; 5 mg/L, Table 4): 79% | activities against Sclerotinia sclerotiorum (growth inhibition) (Sclerotinia sclerotiorum; 10 mg/L, Table 4): 83% | activities against Sclerotinia sclerotiorum (growth inhibition rating) (Sclerotinia sclerotiorum; 25 mg/L): A (A, inhibition (%)>90) | activities against Botrytis cinerea (growth inhibition) (Botrytis cinerea; 1.25 mg/L, Table 7): 62% | activities against Botrytis cinerea (growth inhibition) (Botrytis cinerea; 2.5 mg/L, Table 7): 67% | activities against Botrytis cinerea (growth inhibition) (Botrytis cinerea; 5 mg/L, Table 7): 73% | activities against Botrytis cinerea (growth inhibition) (Botrytis cinerea; 10 mg/L, Table 7): 80% | activities against Botrytis cinerea (growth inhibition rating) (Botrytis cinerea; 25 mg/L): A (A, inhibition (%)>90) | activities against Tetranychus urticae (mortality rating) (Tetranychus urticae; 500 mg/L, mortality 24 hr after the treatment): C (C, 70≧mortality>50)

CC12CC1(C)C(=O)N(c1cc(Cl)cc(Cl)c1)C2=O (stereo not shown) [Procymidone, reference compound]
inhibition at 0.1562 µg/mL (Sclerotinia sclerotiorum; Sclerotinia sclerotiorum, 0.1562 mg/L, Table 5, read-out: activities against Sclerotinia sclerotiorum (growth inhibition)): 34% | inhibition at 0.3125 µg/mL (Sclerotinia sclerotiorum; Sclerotinia sclerotiorum, 0.3125 mg/L, Table 5, read-out: activities against Sclerotinia sclerotiorum (growth inhibition)): 63% | inhibition at 0.625 µg/mL (Sclerotinia sclerotiorum; Sclerotinia sclerotiorum, 0.625 mg/L, Table 5, read-out: activities against Sclerotinia sclerotiorum (growth inhibition)): 66% | inhibition at 1.255 µg/mL (Sclerotinia sclerotiorum; Sclerotinia sclerotiorum, 1.255 mg/L, Table 5, read-out: activities against Sclerotinia sclerotiorum (growth inhibition)): 76% | inhibition at 2.5 µg/mL (Sclerotinia sclerotiorum; Sclerotinia sclerotiorum, 2.5 mg/L, Table 5, read-out: activities against Sclerotinia sclerotiorum (growth inhibition)): 79% | inhibition at 5 µg/mL (Sclerotinia sclerotiorum; Sclerotinia sclerotiorum, 5 mg/L, Table 5, read-out: activities against Sclerotinia sclerotiorum (growth inhibition)): 93% | inhibition at 0.1562 µg/mL (Botrytis cinerea; Botrytis cinerea, 0.1562 mg/L, Table 8, read-out: activities against Botrytis cinerea (growth inhibition)): 46% | inhibition at 0.3125 µg/mL (Botrytis cinerea; Botrytis cinerea, 0.3125 mg/L, Table 8, read-out: activities against Botrytis cinerea (growth inhibition)): 67% | inhibition at 0.625 µg/mL (Botrytis cinerea; Botrytis cinerea, 0.625 mg/L, Table 8, read-out: activities against Botrytis cinerea (growth inhibition)): 75% | inhibition at 1.255 µg/mL (Botrytis cinerea; Botrytis cinerea, 1.255 mg/L, Table 8, read-out: activities against Botrytis cinerea (growth inhibition)): 83% | inhibition at 2.5 µg/mL (Botrytis cinerea; Botrytis cinerea, 2.5 mg/L, Table 8, read-out: activities against Botrytis cinerea (growth inhibition)): 93% | inhibition at 5 µg/mL (Botrytis cinerea; Botrytis cinerea, 5 mg/L, Table 8, read-out: activities against Botrytis cinerea (growth inhibition)): 100% | activity against Cercospora arachidicola (Cercospora arachidicola): 85% | activity against Alternaria mali (Alternaria mali): 82% | activity against Sphaceloma ampelinum (Sphaceloma ampelinum): 96% | activity against Marssonina coronaria (Marssonina coronaria): 75% | activity against Fusarium oxysporum (Fusarium oxysporum): 38% | activity against Alternaria solani (Alternaria solani): 94%

From US9386769B2 (HUNAN RESEARCH INSTITUTE OF CHEMICAL INDUSTRY CO., LTD., priority 2011, dated 2016)
